Experiments:
Type in all cases: cell-based
HuH28 cells = experiment: Cell growth inhibitory effect on human liver cancer cell line (cell counting kit 8, 6 days); conditions: 144 h; human liver cancer cell line HuH28, 6 days incubation
Description: (§1) NCI-H226 cells, a human mesothelioma cell line (ATCC, CRL-5826), NCI-H322 cells, a human lung cancer cell line (the European Collection of Authenticated Cell Cultures, 95111734), OUTOKO cells, a human ovarian cancer cell line (JCRB cell bank, KRB1048) and […] were each subcultured by keeping the cell density under 80% in a RPMI1640 culture medium with 10% fetal bovine serum (FBS). NCI-H226 cells, NCI-H322 cells and SSP-25 cells were each suspended in the RPMI1640 culture medium mentioned above, and plated to a 96-well flat-bottom plate at 500 cells/well in each well, and incubated at 37° C. in an incubator with 5% CO2 for one day. After the incubation, the evaluation of cell growth inhibitory activity was started. OVTOKO cells were suspended in the RPMI1640 culture medium mentioned above, and plated to a 96-well flat-bottom plate at 250 cells/well in each well, and incubated it at 37° C. in an incubator with 5% CO2 for one day. After the incubation, the evaluation of the cell growth inhibitory activity was started. The next day, a test compound was serially diluted to 5 times of its final concentration in the RPM11640 culture medium mentioned above, and the diluted solution was added to each well. In this case, the final concentration of DMSO in each well was adjusted to 0.1%. After the test compound was added, cells were incubated at 37° C. in an incubator with 5% CO2 for 6 days. At the addition of the test compound and 6 days after the addition, the cell counting measurement was performed using a cell counting kit 8 (made by DOJINDO) according to a protocol equivalent to DOJINDO's recommendation. A reagent contained in the kit was added to each plate and color reaction was performed for 2 or 3 hours at 37° C. in an incubator with 5% CO2. After the reaction, an absorbance at wavelength of 450 nm was measured using a microplate reader. A growth inhibition rate was calculated according to the following formula, from which the concentration of a test compound at which cell growth was inhibited by 50% (GI50 value) was determined.

OVTOKO cells = experiment: Cell growth inhibitory effect on human ovarian cancer cell line (cell counting kit 8, 6 days); conditions: 144 h, 6 days incubation
Procedure, shortened: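 Cells in RPMI1640 with 10% FBS plated at 500 cells/well (OVTOKO 250/well) and cultured one day at 37° C, 5% CO2. Serially diluted compound added (final DMSO 0.1%) for 6 days; viable cells measured at addition and day 6 with CCK-8, absorbance 450 nm. GI50 derived from growth inhibition rate.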

NCI-H226 cells = experiment: Cell growth inhibitory effect on human mesothelioma cell line (cell counting kit 8, 6 days); conditions: NCI-H226, 144 h
Description: as §1

NCI-H322 cells = experiment: Cell growth inhibitory effect on human lung cancer cell line (cell counting kit 8, 6 days); conditions: 144 h; human lung cancer cell line NCI-H322, 6 days incubation
Description: as §1

Compound	GI50 (HuH28 cells) [nM]	GI50 (OVTOKO cells) [nM]	GI50 (NCI-H226 cells) [nM]	GI50 (NCI-H322 cells) [nM]
C=CC(=O)NC1CCOc2c1ccc(Oc1ccc(C(F)(F)F)nc1)c2OC (stereo not shown) [Compound 163, N-(8-Methoxy-7-[{6-(trifluoromethyl)pyridin-3-yl}oxy]chroman-4-yl)acrylamide]	< 3000	≤ 3000	< 100	< 1000
C=CC(=O)Nc1cncc(OCC2CCC(F)(F)CC2)c1 [Compound 192]	< 3000	≤ 3000	100 to 1000	< 1000
C=CC(=O)NCc1ccc(Oc2ccc(C(F)(F)F)cc2)c2nc(C)oc12 [Compound 243, N-([2-Methyl-4-{4-(trifluoromethyl)phenoxy}benzo[d]oxazol-7-yl]methyl) acrylamide]	< 3000	≤ 3000	< 100	< 1000
C=CC(=O)NCc1ccc(Oc2ccc(C(F)(F)F)cc2)c2nc(CC)oc12 [Compound 244, N-([2-Ethyl-4-{4-(trifluoromethyl)phenoxy}benzo[d]oxazol-7-yl]methyl)acrylamide]	< 3000	≤ 3000	< 100	< 1000
C=CC(=O)NCc1ccc(Oc2ccc(C(F)(F)F)cc2)c2ncoc12 [Compound 247, N-([4-{4-(Trifluoromethyl)phenoxy}benzo[d]oxazol-7-yl]methyl)acrylamide]	< 3000	≤ 3000	< 100	< 1000
C=CC(=O)NCc1ccc(Oc2ccc(C(F)(F)F)nc2)c2nc(C)oc12 [Compound 249, N-{(2-Methyl-4-[{6-(trifluoromethyl)pyridin-3-yl}oxy]benzo[d]oxazol-7-yl)methyl}acrylamide]	< 3000	≤ 3000	< 100	< 1000
C=CC(=O)NCc1ccc(Oc2ccc(C(F)(F)F)cn2)c2nc(C)oc12 [Compound 250, N-{(2-Methyl-4-[{5-(trifluoromethyl)pyridin-2-yl}oxy]benzo[d]oxazol-7-yl)methyl}acrylamide]	< 3000	≤ 3000	< 100	< 1000
C=CC(=O)NCc1ccc(Oc2ccc(C(F)(F)F)cc2)c2nc(C)sc12 [Compound 256, N-([2-Methyl-4-{4-(trifluoromethyl)phenoxy}benzo[d]thiazol-7-yl]methyl)acrylamide]	< 3000	≤ 3000	< 100	< 1000
C=CC(=O)NCc1ccc(C(O)c2ccc(C(F)(F)F)cc2)c2nc(C)oc12 (stereo not shown) [Compound 268, N-{(4-[Hydroxy{4-(trifluoromethyl)phenyl}methyl]-2-methylbenzo[d]oxazol-7-yl)methyl}acrylamide]	< 3000	≤ 3000	100 to 1000	< 1000
C=CC(=O)NCc1ccc(N(C)c2ccc(C(F)(F)F)cc2)c2nc(C)oc12 [Compound 269, N-{(2-Methyl-4-[methyl{4-(trifluoromethyl)phenyl}amino]benzo[d]oxazol-7-yl)methyl}acrylamide]	< 3000	≤ 3000	100 to 1000	< 1000
C=CC(=O)NCc1ccc(Nc2ccc(C(F)(F)F)cc2)c2nc(C)oc12 [Compound 270, N-{(2-Methyl-4-[{4-(trifluoromethyl)phenyl}amino]benzo[d]oxazol-7-yl)methyl}acrylamide]	< 3000	≤ 3000	< 100	< 1000
C=CC(=O)NCc1ccc(Sc2ccc(C(F)(F)F)cc2)c2nc(C)oc12 [Compound 272, N-{(2-Methyl-4-[{4-(trifluoromethyl)phenyl}thio]benzo[d]oxazol-7-yl)methyl}acrylamide]	< 3000	≤ 3000	< 100	< 1000

Second part, the molecule after the results:

GI50 (HuH28 cells) [nM]	GI50 (OVTOKO cells) [nM]	GI50 (NCI-H226 cells) [nM]	GI50 (NCI-H322 cells) [nM]	Compound
< 3000	≤ 3000	100 to 1000	< 1000	C=CC(=O)NCc1ccc(Oc2ccc(N(C)C)cc2)c2nc(C)oc12 [Compound 275, N-([4-{4-(Dimethylamino)phenoxy}-2-methylbenzo[d]oxazol-7-yl]methyl)acrylamide]
< 3000	≤ 3000	< 100	< 1000	C=CC(=O)NCc1ccc(Oc2ccc(C(F)(F)F)c(F)c2)c2nc(C)oc12 [Compound 277, N-([4-{3-Fluoro-4-(trifluoromethyl)phenoxy}-2-methylbenzo[d]oxazol-7-yl]methyl)acrylamide]
< 3000	≤ 3000	100 to 1000	< 1000	C=CC(=O)NCc1ccc(Oc2ccc(C#N)cc2)c2nc(C)oc12 [Compound 278, N-[{4-(4-Cyanophenoxy]-2-methylbenzo[d]oxazol-7-yl}methyl)acrylamide]
< 3000	≤ 3000	< 100	< 1000	C=CC(=O)NCc1ccc(Oc2cccc(C(F)(F)F)c2)c2nc(C)oc12 [Compound 279, N-([2-Methyl-4-{3-(trifluoromethyl)phenoxy}benzo[d]oxazol-7-yl]methyl) acrylamide]
< 3000	≤ 3000	< 100	< 1000	C=CC(=O)NCc1ccc(Oc2ccc(OC)cc2)c2nc(C)oc12 [Compound 280, N-[{4-(4-Methoxyphenoxy]-2-methylbenzo[d]oxazol-7-yl}methyl)acrylamide]
< 3000	≤ 3000	< 100	< 1000	C=CC(=O)NCc1ccc(Oc2ccc(Cl)cc2)c2nc(C)oc12 [Compound 281, N-[{4-(4-Chlorophenoxy]-2-methylbenzo[d]oxazol-7-yl}methyl)acrylamide]
< 3000	≤ 3000	< 100	< 1000	C=CC(=O)NCc1ccc(OCc2ccccc2)c2nc(C)oc12 [Compound 282, N-[{4-(Benzyloxy)-2-methylbenzo[d]oxazol-7-yl}methyl]acrylamide]
< 3000	≤ 3000	< 100	< 1000	C=CC(=O)NCc1ccc(Oc2ccc(C(F)(F)F)nc2)c2oc(C)nc12 [Compound 283, N-{(2-Methyl-7-[{6-(trifluoromethyl)pyridin-3-yl}oxy]benzo[d]oxazol-4-yl)methyl}acrylamide]
< 3000	≤ 3000	< 100	< 1000	C=CC(=O)NCc1ccc(Oc2ccc(C(F)(F)F)cn2)c2oc(C)nc12 [Compound 284, N-{(2-Methyl-7-[{5-(trifluoromethyl)pyridin-2-yl}oxy]benzo[d]oxazol-4-yl)methyl}acrylamide]
< 3000	≤ 3000	< 100	< 1000	C=CC(=O)NCc1ccc(Oc2ccc(C(F)(F)F)nc2)c2nc(C)sc12 [Compound 285, N-{(2-Methyl-4-[{6-(trifluoromethyl)pyridin-3-yl}oxy]benzo[d]thiazol-7-yl)methyl}acrylamide]
< 3000	≤ 3000	< 100	< 1000	C=CC(=O)NCc1ccc(Oc2ccc(C(F)(F)F)cn2)c2nc(C)sc12 [Compound 286, N-{(2-Methyl-4-[{5-(trifluoromethyl)pyridin-2-yl}oxy]benzo[d]thiazol-7-yl)methyl}acrylamide]
< 3000	≤ 3000	< 100	< 1000	C=CC(=O)NCc1ccc(Oc2ccc(C(F)(F)F)nc2)c2sc(C)nc12 [Compound 287, N-{(2-Methyl-7-[{6-(trifluoromethyl)pyridin-3-yl}oxy]benzo[d]thiazol-4-yl)methyl}acrylamide]
< 3000	≤ 3000	< 100	< 1000	C=CC(=O)NCc1ccc(Oc2ccc(C(F)(F)F)cn2)c2sc(C)nc12 [Compound 288, N-{(2-Methyl-7-[{5-(trifluoromethyl)pyridin-2-yl}oxy]benzo[d]thiazol-4-yl)methyl}acrylamide]
